From ChEMBL document CHEMBL5257052, “Aromatic Polyketides from the Mangrove-Derived Streptomyces sp. SCSIO 40069” (2023)
Values after ≈ are worked out from the molar mass of the structure shown.

What was measured:
Format in all cases: functional
Staphylococcus aureus = assay: Antibacterial activity against Staphylococcus aureus ATCC 29213 measured after 16 hrs by broth microdilution method
Vibrio alginolyticus = assay: Antibacterial activity against Vibrio alginolyticus 13214 measured after 16 hrs by broth microdilution method
Micrococcus luteus = assay: Antibacterial activity against Micrococcus luteus SCSIO ML01 measured after 16 hrs by broth microdilution method
Klebsiella pneumoniae = assay: Antibacterial activity against Klebsiella pneumoniae ATCC 13883 measured after 16 hrs by broth microdilution method
Acinetobacter baumannii = assay: Antibacterial activity against Acinetobacter baumannii ATCC 19606 measured after 16 hrs by broth microdilution method

Compound | MIC (Staphylococcus aureus) | MIC (Vibrio alginolyticus) | MIC (Micrococcus luteus) | MIC (Klebsiella pneumoniae) | MIC (Acinetobacter baumannii)
COc1cc(Cc2cnc(N)nc2N)cc(OC)c1OC [TRIMETHOPRIM] | 2 µg/mL (≈ 6.89 µM) | 0.125 µg/mL (≈ 0.431 µM) | 2 µg/mL (≈ 6.89 µM) | 0.125 µg/mL (≈ 0.431 µM) | 0.125 µg/mL (≈ 0.431 µM)
CC(=O)c1c(O)cc2c3c(cccc13)C=C(C=O)O2 | > 64 µg/mL | 32 µg/mL (≈ 126 µM) | 32 µg/mL (≈ 126 µM) | 32 µg/mL (≈ 126 µM) | > 64 µg/mL
CC(=O)c1c(O)cc2c3c(cccc13)C=C([C@H](O)[C@H](C)O)O2 | > 64 µg/mL | > 64 µg/mL | > 64 µg/mL | > 64 µg/mL | > 64 µg/mL
CC(=O)c1c(O)cc2c3c(cccc13)C=C(CO)O2 | 8 µg/mL (≈ 31.2 µM) | > 64 µg/mL | 8 µg/mL (≈ 31.2 µM) | 64 µg/mL (≈ 250 µM) | 64 µg/mL (≈ 250 µM)

The next lines start with the values.

MIC (Staphylococcus aureus) | MIC (Vibrio alginolyticus) | MIC (Micrococcus luteus) | MIC (Klebsiella pneumoniae) | MIC (Acinetobacter baumannii) | Compound
8 µg/mL (≈ 28.3 µM) | 32 µg/mL (≈ 113 µM) | 8 µg/mL (≈ 28.3 µM) | 8 µg/mL (≈ 28.3 µM) | > 64 µg/mL | CC(=O)CC1=Cc2cccc3c(C(C)=O)c(O)cc(c23)O1
> 64 µg/mL | 64 µg/mL (≈ 213 µM) | > 64 µg/mL | 16 µg/mL (≈ 53.3 µM) | 32 µg/mL (≈ 107 µM) | CC(=O)c1c(O)cc2c3c(cccc13)C=C([C@H](O)[C@@H](C)O)O2
> 64 µg/mL | > 64 µg/mL | > 64 µg/mL | > 64 µg/mL | > 64 µg/mL | CC(=O)c1c(O)cc2c3c(cccc13)C=C([C@@H](O)[C@@H](C)O)O2
> 64 µg/mL | > 64 µg/mL | > 64 µg/mL | > 64 µg/mL | > 64 µg/mL | CC(=O)c1c(O)cc2c3c(cccc13)C=C([C@@H](O)[C@H](C)O)O2
> 64 µg/mL | 64 µg/mL (≈ 266 µM) | 64 µg/mL (≈ 266 µM) | > 64 µg/mL | > 64 µg/mL | CC(=O)c1c(O)cc2c3c(cccc13)C=C(C)O2
